pIC50: −log10 of the molar value. Where “and” joins values, the source holds several entries; their conditions need not be identical. Equal entries are not always repeated.
Tests used:
[1] = system: platelets; assay: Ex-vivo platelet aggregation in whole blood; set-up: species or system cynomolgus monkeys; conditions: oral dose of 0.1 mg/kg
[2] = biological target: hERG (Homo sapiens, UniProt Q12809); assay: hERG voltage clamp assay; assay type: cell-based
[3] = Laboratory safety tests and ECGs at doses and durations studied to date; assay type: in vivo; conditions: doses and treatment duration studied to date
From the text: Overall, the study drug was generally well-tolerated.

[4] = Phase 2 study (P03573): bleeding in secondary cohort undergoing CABG; assay type: in vivo, humans; conditions: for Any bleed, patients (%) / Chest Tube Drainage / TIMI Major/Minor bleeding, patients (%) / Transfusion PRBC, patients (%) / non-TIMI bleeding, patients (%): secondary cohort (CABG treated)
From the text: (§1) The behavior of SCH 530348 in humans was further studied in a Phase 2 clinical development program. A key safety issue for SCH 530348 is the potential for incremental bleeding when added to standard of care with other oral antiplatelet therapies as well as parenteral antithrombotics. Therefore, a single Phase 2 study (P03573) was completed to evaluate the safety of SCH 530348 in patients at high risk of bleeding events, i.e., those patients undergoing non-emergent PCI (percutaneous coronary intervention). The goals of this Phase 2 study were to: • Evaluate the safety of SCH 530348 in addition to standard of care with respect to TIMI major and minor bleeding; and, • Observe the effects of SCH 530348 on major adverse cardiac events (“MACE”) in patients successfully completing an interventional procedure.
The use of TIMI bleeding classification alone is of limited value and can be misleading in defining bleeding risk in patients undergoing CABG because of the routine use of packed red blood cell (“PRBC”) transfusions to prime the pump and extracorporeal oxygenator, and the resultant decline in hemoglobin that results from the administration of parenteral fluids during surgery. Therefore, other clinically meaningful measures (e.g., chest tube drainage, transfusions, need for re-exploration) were examined.

[5] = Phase 2 study (P03573): death, MACE and other clinical events in primary (PCI) cohort; assay type: in vivo, humans; conditions: for Death/MACE, patients (%) / Death/MACE/Stroke, patients (%) / Death/MI, patients (%) / MACE, patients (%) / MI, patients (%) / Recurrent ischemia, patients (%) / Revascularization, patients (%) / Death, patients (%) / Stroke, patients (%): primary cohort (PCI); for Death/MACE, patients (%) / Death/MACE/Stroke, patients (%) / Death/MI, patients (%) / MACE, patients (%) / MI, patients (%) / Recurrent ischemia, patients (%) / Revascularization, patients (%): 60 days
From the text: as §1
The primary endpoint (directed to evaluating safety) was the combined […] (“TIMI”) major and TIMI minor bleeding over sixty days in the primary evaluable cohort. Though the study was not powered to evaluate efficacy, a secondary endpoint (directed to evaluating efficacy) was the incidence of the composite of death and major adverse cardiac events (“MACE”) in the primary cohort. MACE includes myocardial infarction, urgent revascularization, and ischemia requiring hospitalization. Pharmacokinetics and pharmacodynamics were assessed at selected sites across the treatment groups. Other secondary endpoints included the incidence of TIMI major and minor bleeding in the secondary evaluable cohort i.e., those individuals who received the loading dose only.
Although the Phase 2 study was neither designed nor powered to assess efficacy, i.e., reduction of clinical event rates, there was a 31% relative reduction observed in the composite of death and major adverse cardiac events (MACE) at sixty days in the SCH 530348 group (5.9%) versus placebo (8.6%) in the primary cohort. This difference was not statistically significant. All clinical events were adjudicated by a blinded Clinical Events Committee.

[6] = system: platelets; assay: Arachidonic acid (AA)-induced platelet aggregation; assay type: in vivo, humans; conditions: loading and maintenance doses
Description: A pharmacodynamic substudy incorporating light aggregometry was performed under stringent physiologic conditions and read by a central core laboratory. […] The term “therpeutically effective amount of a thrombin receptor antagonist” will be understood to mean that quantity of the thrombin receptor antagonist sufficient to achieve at least 80% inhibition of TRAP mediated platelet aggregation.
Similarly, there is no effect on arachidonic acid (“AA”) -induced platelet aggregation (see FIGS. 16 and 17) or collagen-induced platelet aggregation (see FIGS. 18-21).

[7] = Pharmacokinetics: blood concentration of SCH 530348; assay type: in vivo, humans
Description: As the dose of SCH 530348 increased, the onset of platelet aggregation occurred at earlier sampling time points and maximum observed inhibition of aggregation increased, with 20 and 40 mg causing consistent maximum (>80%) inhibition of TRAP-induced platelet aggregation at 1-2 hours post dose. […] The duration of these pharmacodynamic effects is consistent with the drug's long elimination half-life.
This level of platelet inhibition is believed to be sufficient to lower the risks of adverse clinical events associated with PCI. […] The term “risk-abated PCI procedures” will be understood to mean those PCI procedures that are undertaken after the patient has achieved at least 80% platelet inhibition. This represents a marked improvement over the 4-6 hour period before risk-abated PCI can be performed using the current standard of care, i.e., clopidogrel and aspirin without a thrombin receptor antagonist.

[8] = primary cohort, 40 mg loading dose

Chain of hERG (Q12809 whole entry): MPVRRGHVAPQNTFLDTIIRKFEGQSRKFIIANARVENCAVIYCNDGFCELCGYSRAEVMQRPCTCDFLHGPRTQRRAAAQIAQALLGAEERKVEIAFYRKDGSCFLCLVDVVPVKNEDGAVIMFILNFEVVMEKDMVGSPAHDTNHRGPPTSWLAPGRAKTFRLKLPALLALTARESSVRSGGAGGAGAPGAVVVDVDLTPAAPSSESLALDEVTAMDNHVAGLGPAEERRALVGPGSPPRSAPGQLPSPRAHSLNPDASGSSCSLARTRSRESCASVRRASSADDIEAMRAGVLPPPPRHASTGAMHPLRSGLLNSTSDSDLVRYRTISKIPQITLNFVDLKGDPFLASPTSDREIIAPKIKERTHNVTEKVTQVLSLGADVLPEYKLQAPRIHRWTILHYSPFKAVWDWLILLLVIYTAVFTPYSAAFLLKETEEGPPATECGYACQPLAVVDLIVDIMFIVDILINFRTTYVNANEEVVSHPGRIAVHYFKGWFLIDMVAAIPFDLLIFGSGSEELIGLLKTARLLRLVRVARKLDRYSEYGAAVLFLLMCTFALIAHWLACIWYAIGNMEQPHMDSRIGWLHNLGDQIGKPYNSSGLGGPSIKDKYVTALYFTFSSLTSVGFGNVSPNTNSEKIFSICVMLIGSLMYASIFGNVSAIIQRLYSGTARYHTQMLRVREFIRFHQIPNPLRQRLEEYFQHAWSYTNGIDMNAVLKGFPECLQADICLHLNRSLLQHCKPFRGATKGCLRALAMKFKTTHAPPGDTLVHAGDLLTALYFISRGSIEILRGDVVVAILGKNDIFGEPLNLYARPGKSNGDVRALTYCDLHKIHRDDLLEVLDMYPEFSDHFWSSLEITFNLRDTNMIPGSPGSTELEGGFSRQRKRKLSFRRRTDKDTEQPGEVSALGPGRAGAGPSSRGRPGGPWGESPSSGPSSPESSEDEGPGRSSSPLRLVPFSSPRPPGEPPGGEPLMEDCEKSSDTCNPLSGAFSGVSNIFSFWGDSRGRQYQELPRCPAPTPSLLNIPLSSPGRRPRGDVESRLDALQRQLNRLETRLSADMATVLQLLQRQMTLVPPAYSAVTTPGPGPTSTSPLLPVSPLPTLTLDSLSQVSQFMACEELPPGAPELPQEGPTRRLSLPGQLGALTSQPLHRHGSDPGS

CCOC(=O)N[C@@H]1CC[C@@H]2[C@@H](C1)C[C@H]1C(=O)O[C@H](C)[C@H]1[C@H]2/C=C/c1ccc(-c2cccc(F)c2)cn1.O=S(=O)(O)O [SCH 530348, ethyl [(1R,3aR,4aR,6R,8aR,9S,9aS)-9-[(E)-2-[5-(3-fluorophenyl)-2-pyridinyl]ethenyl]-dodecahydro-1-methyl-3-oxonaphtho[2,3-c]furan-6-yl] carbamate bisulfate]
Inhibition of TRAP-driven platelet aggregation (ex-vivo) [1]: 100%
pIC50 [2]: ~6.47
Changes in laboratory safety tests or ECGs [3]: no significant treatment-related changes or abnormalities
Total chest tube drainage, proportion with >2 units PRBC transfusion, need for re-exploration versus placebo ([4]; patients who underwent CABG): no increase
Any bleed, patients (%) ([4]; 10 mg loading dose): 100%
Chest Tube Drainage ([4]; 10 mg loading dose): 1393 mL
TIMI Major/Minor bleeding, patients (%) ([4]; 10 mg loading dose): 90%
Transfusion PRBC, patients (%) ([4]; 10 mg loading dose): 80%
non-TIMI bleeding, patients (%) ([4]; 10 mg loading dose): 30% and 20%
Any bleed, patients (%) ([4]; 20 mg loading dose): 100%
Chest Tube Drainage ([4]; 20 mg loading dose): 1015 mL
TIMI Major/Minor bleeding, patients (%) ([4]; 20 mg loading dose): 94%
Transfusion PRBC, patients (%) ([4]; 20 mg loading dose): 50%
non-TIMI bleeding, patients (%) ([4]; 20 mg loading dose): 33%
Any bleed, patients (%) ([4]; 40 mg loading dose): 100%
Chest Tube Drainage ([4]; 40 mg loading dose): 870 mL
TIMI Major/Minor bleeding, patients (%) ([4]; 40 mg loading dose): 92%
Transfusion PRBC, patients (%) ([4]; 40 mg loading dose): 63%
non-TIMI bleeding, patients (%) ([4]; 40 mg loading dose): 39%
Any bleed, patients (%) ([4]; All SCH 530348): 100%
Chest Tube Drainage ([4]; All SCH 530348): 988 mL
TIMI Major/Minor bleeding, patients (%) ([4]; All SCH 530348): 94% and 92%
Transfusion PRBC, patients (%) ([4]; All SCH 530348): 62%
non-TIMI bleeding, patients (%) ([4]; All SCH 530348): 35% and 33%
Death/MACE, patients (%) ([5]; 10 mg loading dose): 8.5%
Death/MACE/Stroke, patients (%) ([5]; 10 mg loading dose): 9.3%
Death/MI, patients (%) ([5]; 10 mg loading dose): 5.4%
MACE, patients (%) ([5]; 10 mg loading dose): 8.5%
MI, patients (%) ([5]; 10 mg loading dose): 5.4%
Recurrent ischemia, patients (%) ([5]; 10 mg loading dose): 0.8%
Revascularization, patients (%) ([5]; 10 mg loading dose): 2.3%
Death/MACE, patients (%) ([5]; 20 mg loading dose): 5%
Death/MACE/Stroke, patients (%) ([5]; 20 mg loading dose): 5.0%
Death/MI, patients (%) ([5]; 20 mg loading dose): 4.2%
MACE, patients (%) ([5]; 20 mg loading dose): 5.0%
MI, patients (%) ([5]; 20 mg loading dose): 4.2%
Revascularization, patients (%) ([5]; 20 mg loading dose): 0.8%
Death/MACE, patients (%) ([5]; 40 mg loading dose): 4.6%
Death/MACE/Stroke, patients (%) ([5]; 40 mg loading dose): 4.6%
Death/MI, patients (%) ([5]; 40 mg loading dose): 4.0%
MACE, patients (%) ([5]; 40 mg loading dose): 4.0%
MI, patients (%) ([5]; 40 mg loading dose): 3.5%
Revascularization, patients (%) ([5]; 40 mg loading dose): 1.2%
Death/MACE, patients (%) ([5]; All SCH 530348): 5.9%
Death/MACE/Stroke, patients (%) ([5]; All SCH 530348): 6.2%
Death/MI, patients (%) ([5]; All SCH 530348): 4.5%
MACE, patients (%) ([5]; All SCH 530348): 5.7%
MI, patients (%) ([5]; All SCH 530348): 4.3%
Recurrent ischemia, patients (%) ([5]; All SCH 530348): 0.2%
Revascularization, patients (%) ([5]; All SCH 530348): 1.4%
Death, patients (%) ([5]; 10 mg loading dose): 0.8%
Stroke, patients (%) ([5]; 10 mg loading dose): 0.8%
Death, patients (%) ([5]; 40 mg loading dose): 0.6%
Death, patients (%) ([5]; All SCH 530348): 0.5%
Stroke, patients (%) ([5]; All SCH 530348): 0.2%
Reduction in MI versus placebo [5, 8]: 52%
Relative reduction in composite of death and MACE versus placebo [5, 8]: 47%
Relative reduction in composite of death and MACE at sixty days versus placebo ([5]; primary cohort, SCH 530348 group (all doses), not statistically significant): 31%
Effect on arachidonic acid (AA)-induced platelet aggregation [6]: no effect
Time to peak blood concentration levels ([7]; 40 mg loading dose): in as little as one hour
Elimination half-life ([7]; in vivo): long
